Patent publication US5001048A (priority 1987, dated 1991)
Several values for one entry are separate records, joined by “and”; a condition that tells them apart may be missing. Identical values can stand only once. Like-named read-outs stand apart in the source and are kept apart here.

Columns and labels:
[1] = tested on: acetylcholine receptor (AChR); format: binding, Electrophorus electricus; conditions: for % Activity Increase: 24 to 48 hours after immobilization, over nondetergent containing membrane; for stabilization of AChR activity in the membrane (in words): retention of binding activity at immobilization and after storage
[2] = Control sensor (same formulation, no AChR added) impedance response to agent challenge; conditions: 50 to 100 uL
Description: (§1) All measurements utilized wetted biosensors (i.e., sensors presoaked in deionized water and test buffer). The biosensor was washed with deionized water to a constant output value (that is, it maintained the same impedance value upon further washing). This established a baseline value for the sensor in absence of ligand. Test samples in buffer were then added. Output (changes in impedance, etc) was recorded as a function of time.
(§2) Two approaches were used to evaluate the functionality of the two types (i.e., receptor and antibody-based) of biosensors. In the first approach, measurements were taken sequentially on control and test sensors ("chips") and compared. This approach can be done quickly for rapid evaluation of a sensor (FIGS. 1 and 3). However, background (i.e., non specific binding to the sensor) is not subtracted out automatically. […] This allows for simultaneous challenge (i.e., challenge of both the control and the receptor-containing biosensor at the same time) and background is automatically subtracted out.
(§3) In the case in which sequential measurements were used, alternating current measurements were made on the sensors, and changes were recorded in impedance (measured in ohms), capacitance or phase angle. Samples in volumes of 5 to 200 microliters (ul) were analyzed; […].
(§4) Typically, a sample to be tested (i.e., one thought to contain an analyte of interest) was applied to a sensor which had been previously equilibrated with deionized water and readings of output impedance from the sensor were taken. Equilibration to constant readings occurred within 2 to 10 sec. Readings remained stable for at least the 5 minutes during which the output was routinely monitored. The sensor was then washed with deionized water to background equilibrium, sample was again added and readings were taken. In each case 2 to 5 cycles were carried out in this way.
^b Control sensor is the same formulation as AChR but with no AChR

[3] = tested on: immobilized acetylcholine receptor (AChR); assay: AChR sensor alternating current impedance response to agent challenge; format: binding, Electrophorus electricus; conditions: for AChR sensor response: 50 to 100 uL
Description: as §1, §2, §3, §4

Compound: CCCCCCCCCCCCCCCC[N+](C)(C)C.[Br-] [CTAB, cetyltrimethylammonium bromide]
- % Activity Increase ([1]; detergent 0.5% by volume): 4%
- % Activity Increase ([1]; detergent 1.0% by volume): 18%
- % Activity Increase ([1]; detergent 2.0% by volume): 28%

Compound: C[C@H](CCC(=O)O)[C@H]1CC[C@H]2[C@@H]3[C@H](O)C[C@@H]4C[C@H](O)CC[C@]4(C)[C@H]3C[C@H](O)[C@]12C [Sodium cholate, sodium cholate]
- % Activity Increase ([1]; detergent 1.0% by volume): 110%
- % Activity Increase ([1]; detergent 2.0% by volume): 145%
- stabilization of AChR activity in the membrane (in words) [1]: best stabilizing detergents

Compound: CCCCCCCC[N+](C)(C)CCCS(=O)(=O)[O-] [Zwittergent ™ 3-08, N-octyl-N-N dimethyl-3-amino-1-propane sulfonate]
- % Activity Increase ([1]; detergent 1.0% by volume): 55% and 30%
- % Activity Increase ([1]; detergent 2.0% by volume): 55% and 38%

Compound: glucose
- Control sensor response ([2]; agent 0.5 ug/ml): 28 K.OMEGA.
- Control sensor response ([2]; agent 5 ug/ml): 33 K.OMEGA.
- Control sensor response ([2]; agent 50 ug/ml): 33 K.OMEGA.
- Control sensor response ([2]; agent 500 ug/ml): 58 K.OMEGA.
- % Change of AChR sensor with respect to control ([3]; agent 0.5 ug/ml): 3%
- AChR sensor response ([3]; agent 0.5 ug/ml): 29 K.OMEGA.
- % Change of AChR sensor with respect to control ([3]; agent 5 ug/ml): 0%
- AChR sensor response ([3]; agent 5 ug/ml): 33 K.OMEGA.
- % Change of AChR sensor with respect to control ([3]; agent 50 ug/ml): 6%
- AChR sensor response ([3]; agent 50 ug/ml): 35 K.OMEGA.
- % Change of AChR sensor with respect to control ([3]; agent 500 ug/ml): 5%
- AChR sensor response ([3]; agent 500 ug/ml): 61 K.OMEGA.
- change in resistance between control and AChR sensors (in words) ([3]; dose-response, Table 5): no change

Compound: octylphenoxy polyethoxyethanol [Triton ™ X-100]
- % Activity Increase ([1]; detergent 0.1% by volume): 12%
- % Activity Increase ([1]; detergent 0.5% by volume): 55%
- % Activity Increase ([1]; detergent 1.0% by volume): 85%
- % Activity Increase ([1]; detergent 2.0% by volume): 110%
- stabilization of AChR activity in the membrane (in words) [1]: best stabilizing detergents
